Test results reported in ChEMBL document CHEMBL1145355, “From selective substrate analogue factor Xa inhibitors to dual inhibitors of thrombin and factor Xa. Part 3” (Bioorg Med Chem Lett, 2007).

Columns and labels:
Prothrombin = Prothrombin (Homo sapiens, UniProt P00734); experiment: Inhibition of thrombin
[1] = target: Urokinase-type plasminogen activator (Homo sapiens, UniProt P00749); experiment: Inhibition of uPA
[2] = Inhibition of Plasmin; set-up: species or system Homo sapiens
Trypsin = Trypsin (Homo sapiens, UniProt P07477+P07478+P35030); experiment: Inhibition of trypsin; assay type: protein assay
Coagulation factor X = Coagulation factor X (Homo sapiens, UniProt P00742)
Sequence of Coagulation factor X (P00742 41-179 limits assumed): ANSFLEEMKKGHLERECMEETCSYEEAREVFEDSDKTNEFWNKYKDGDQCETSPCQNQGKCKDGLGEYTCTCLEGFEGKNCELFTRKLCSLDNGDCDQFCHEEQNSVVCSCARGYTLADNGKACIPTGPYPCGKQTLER
Sequence of Coagulation factor X (P00742 235-488 limits assumed): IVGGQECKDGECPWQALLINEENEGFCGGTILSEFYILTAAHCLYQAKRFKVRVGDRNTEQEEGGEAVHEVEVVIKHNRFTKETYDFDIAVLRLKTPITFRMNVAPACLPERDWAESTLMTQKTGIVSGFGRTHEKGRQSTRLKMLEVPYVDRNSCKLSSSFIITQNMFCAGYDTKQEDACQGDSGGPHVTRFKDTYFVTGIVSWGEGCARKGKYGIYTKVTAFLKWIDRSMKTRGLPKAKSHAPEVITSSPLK

Plasma [3] = experiment: Anticoagulant activity in human plasma by PT assay; assay type: functional
[4] = Permeability across Caco-2 cell membrane; assay type: ADME, cell-based; settings: human
Plasma [5] = experiment: Anticoagulant activity in human plasma by TT assay; assay type: functional
[6] = Anticoagulant activity in human plasma by aPTT assay; assay type: functional
[7] = Half life in iv dosed rat; assay type: ADME, organism-based; settings: in vivo
Rattus norvegicus = experiment: Clearance in bile of rat at 5 mg/kg po; assay type: ADME, organism-based; set-up: dose 5 mg/kg, route oral; settings: in vivo
[8] = % of dose in urine of rat at 5 mg/kg po; assay type: ADME, organism-based; set-up: dose 5 mg/kg, route oral; settings: read-out: Compound in urine
[9] = Bioavailability in rat at 5 mg/kg po; assay type: ADME, organism-based; settings: in vivo

| Structure (SMILES) | Ki (Prothrombin) | Ki [1] | Ki [2] | Ki (Trypsin) | Ki (Coagulation factor X) | Papp [4] | half-life [7] | CL_biliary (Rattus norvegicus) | dose excreted [8] | bioavailability [9] | IC200 (Plasma [3]) | IC200 (Plasma [5]) | IC200 [6] |
| --- | --- | --- | --- | --- | --- | --- | --- | --- | --- | --- | --- | --- | --- |
| NCc1ccc(Cl)cc1CNC(=O)CNC(=O)C(CCc1cccc[n+]1[O-])NC(=O)CC(=O)O (stereo unspecified) | 140 µM | > 5 µM | > 5 µM | > 0.5 µM | – | – | – | – | – | – | – | – | – |
| CCOC(=O)CN[C@H](CCc1ccc(O)cc1)C(=O)N1CCC[C@H]1C(=O)NCc1cc(Cl)ccc1CN | 0.0036 µM | > 5 µM | > 5 µM | > 0.5 µM | 17 nM | 8.9 ×10⁻⁶ cm/s | – | – | – | – | 0.85 µM | 0.23 µM | 0.58 µM |
| COC(=O)C(=O)N[C@H](CCc1cccc[n+]1[O-])C(=O)N1CCC[C@H]1C(=O)NCc1cc(Cl)ccc1CN | 0.0177 µM | > 5 µM | > 5 µM | > 0.5 µM | 0.63 nM | – | – | – | – | – | 0.79 µM | 0.13 µM | 0.3 µM |
| CCOC(=O)CN[C@H](CCc1cccc[n+]1[O-])C(=O)N1CCC[C@H]1C(=O)NCc1cc(Cl)ccc1CN | – | > 5 µM | > 5 µM | > 0.5 µM | 1.7 nM | – | – | – | – | – | – | 0.1 µM | 0.18 µM |
| NCc1ccc(Cl)cc1CNC(=O)[C@@H]1CCCN1C(=O)[C@@H](CCc1ccc(O)cc1)NCC(=O)O | 0.0032 µM | > 5 µM | > 5 µM | > 0.5 µM | – | – | – | – | – | – | 0.73 µM | 0.15 µM | 0.47 µM |
| NCc1ccc(Cl)cc1CNC(=O)[C@@H]1CCCN1C(=O)[C@@H](CCc1cccc[n+]1[O-])NCC(=O)OC1CCCCC1 | 0.009 µM | > 5 µM | > 5 µM | > 0.5 µM | – | – | – | – | – | – | – | – | – |
| CCCCCCOC(=O)CN[C@H](CCc1cccc[n+]1[O-])C(=O)N1CCC[C@H]1C(=O)NCc1cc(Cl)ccc1CN | 0.0078 µM | > 5 µM | > 5 µM | > 0.5 µM | – | – | – | – | – | – | – | – | – |
| NCc1ccc(Cl)cc1CNC(=O)[C@@H]1CCCN1C(=O)[C@@H](CCc1cccc[n+]1[O-])NS(=O)(=O)CC(=O)O | 0.0077 µM | > 5 µM | > 5 µM | 0.061 µM | – | – | – | – | – | – | – | 0.11 µM | 0.15 µM |
| C[C@H](NC(=O)[C@@H](CCc1ccccn1)NS(=O)(=O)Cc1ccccc1)C(=O)NCc1cc(Cl)ccc1CN | 0.024 µM | > 5 µM | > 5 µM | > 0.5 µM | 0.084 nM | – | – | – | – | – | – | – | – |
| NCc1ccc(Cl)cc1CNC(=O)CNC(=O)C(CCc1cccc[n+]1[O-])NCC(=O)O (stereo unspecified) | 125 µM | > 5 µM | > 5 µM | > 0.5 µM | – | – | – | – | – | – | 3.3 µM | >100 µM | 6 µM |
| NCc1ccc(Cl)cc1CNC(=O)CNC(=O)C(CCc1cccc[n+]1[O-])NS(=O)(=O)CC(=O)O (stereo unspecified) | 8.3 µM | > 5 µM | > 5 µM | > 0.5 µM | – | – | – | – | – | – | – | 57 µM | 0.89 µM |
| CCOC(=O)CN[C@H](CCc1ccccn1)C(=O)N1CCC[C@H]1C(=O)NCc1cc(Cl)ccc1CN | 0.0038 µM | > 5 µM | > 5 µM | > 0.5 µM | – | 2.4 ×10⁻⁶ cm/s | – | – | – | – | 0.6 µM | 0.09 µM | 0.23 µM |
| CCOC(=O)CC(=O)NC(CCc1cccc[n+]1[O-])C(=O)NCC(=O)NCc1cc(Cl)ccc1CN (stereo unspecified) | 40 µM | > 5 µM | > 5 µM | > 0.5 µM | 200 nM | – | – | – | – | – | – | – | – |
| CCCS(=O)(=O)NC(CCc1cccc[n+]1[O-])C(=O)NCC(=O)NCc1cc(Cl)ccc1CN (stereo unspecified) | 2.7 µM | > 5 µM | > 5 µM | > 0.5 µM | – | – | – | – | – | – | – | 6.5 µM | 0.45 µM |
| NCc1ccc(Cl)cc1CNC(=O)CNC(=O)C(CCc1cccc[n+]1[O-])NC(=O)C(=O)O (stereo unspecified) | 18 µM | > 5 µM | > 5 µM | > 0.5 µM | 4.9 nM | – | 30 min | – | – | – | 0.13 µM | 15 µM | 1.85 µM |
| NCc1ccc(Cl)cc1CNC(=O)[C@H](CO)NC(=O)C(CCc1ccccn1)NS(=O)(=O)Cc1ccccc1 (stereo partly specified) | 0.25 µM | > 5 µM | > 5 µM | > 0.5 µM | – | – | – | – | – | – | – | – | – |
| NCc1ccc(Cl)cc1CNC(=O)[C@@H]1CCCN1C(=O)[C@@H](CCc1cccc[n+]1[O-])NS(=O)(=O)Cc1ccccc1 | 0.00056 µM | > 5 µM | > 5 µM | 0.019 µM | – | – | – | – | – | – | – | – | – |
| CC(C)OC(=O)CS(=O)(=O)NC(CCc1cccc[n+]1[O-])C(=O)NCC(=O)NCc1cc(Cl)ccc1CN (stereo unspecified) | 0.53 µM | > 5 µM | > 5 µM | > 0.5 µM | 0.76 nM | – | – | – | – | – | – | – | – |
| NCc1ccc(Cl)cc1CNC(=O)[C@@H]1CCCN1C(=O)[C@@H](CCc1cccc[n+]1[O-])NCC(=O)O | 0.0173 µM | > 5 µM | > 5 µM | > 0.5 µM | 0.94 nM | – | – | – | – | – | – | 0.17 µM | 0.32 µM |
| COC(=O)C(=O)NC(CCc1cccc[n+]1[O-])C(=O)NCC(=O)NCc1cc(Cl)ccc1CN (stereo unspecified) | 6.5 µM | > 5 µM | > 5 µM | > 0.5 µM | 4.9 nM | – | – | – | – | – | – | – | – |
| COC(=O)Cc1ccc(CS(=O)(=O)NC(CCc2cccc[n+]2[O-])C(=O)NCC(=O)NCc2cc(Cl)ccc2CN)cc1 (stereo unspecified) | 1.01 µM | > 5 µM | > 5 µM | > 0.5 µM | – | – | – | – | – | – | – | – | – |
| NCc1ccc(Cl)cc1CNC(=O)[C@H](CCC(=O)O)NC(=O)C(CCc1cccc[n+]1[O-])NS(=O)(=O)Cc1ccccc1 (stereo partly specified) | 20 µM | > 5 µM | > 5 µM | > 0.5 µM | – | – | – | – | – | – | – | – | – |
| NCc1ccc(Cl)cc1CNC(=O)[C@@H]1CCCN1C(=O)[C@@H](CCc1ccccn1)NCC(=O)O | – | > 5 µM | > 5 µM | > 0.5 µM | – | 5 ×10⁻⁶ cm/s | – | – | – | – | 0.35 µM | 0.03 µM | 0.16 µM |
| COC(=O)C(=O)NC(CCc1cccc[n+]1[O-])C(=O)N1CCC[C@H]1C(=O)NCc1cc(Cl)ccc1CN (stereo partly specified) | 0.019 µM | > 5 µM | > 5 µM | > 0.5 µM | 0.87 nM | – | – | – | – | – | – | – | – |

Further lines, with some results ahead:

| Ki (Prothrombin) | Ki [1] | Ki [2] | Ki (Trypsin) | Ki (Coagulation factor X) | Papp [4] | half-life [7] | CL_biliary (Rattus norvegicus) | dose excreted [8] | bioavailability [9] | Structure (SMILES) | IC200 (Plasma [3]) | IC200 (Plasma [5]) | IC200 [6] |
| --- | --- | --- | --- | --- | --- | --- | --- | --- | --- | --- | --- | --- | --- |
| 140 µM | > 5 µM | > 5 µM | > 0.5 µM | 52 nM | – | – | – | – | – | O=C(CNC(=O)C(CCc1cccc[n+]1[O-])NS(=O)(=O)Cc1ccccc1)NCc1cccs1 (stereo unspecified) | – | – | – |
| 10 µM | > 5 µM | > 5 µM | > 0.5 µM | 3.3 nM | – | – | – | – | – | O=C(CNC(=O)[C@@H](CCc1cccc[n+]1[O-])NS(=O)(=O)Cc1ccccc1)NCc1cccc(Cl)c1 | – | – | – |
| 0.17 µM | > 5 µM | > 5 µM | > 0.5 µM | – | – | – | – | – | – | C[C@H](NC(=O)[C@@H](CCc1cccc[n+]1[O-])NS(=O)(=O)Cc1ccccc1)C(=O)NCc1cc(Cl)ccc1CN | – | – | – |
| 7.6 µM | > 5 µM | > 5 µM | > 0.5 µM | 2.55 nM | – | – | – | – | – | O=C(CNC(=O)C(CCc1cccc[n+]1[O-])NS(=O)(=O)Cc1ccccc1)NCc1cc(Cl)ccc1Cl (stereo unspecified) | – | – | – |
| 88 µM | > 5 µM | > 5 µM | > 0.5 µM | 21 nM | – | – | – | – | – | Nc1ccc(CNC(=O)CNC(=O)C(CCc2cccc[n+]2[O-])NS(=O)(=O)Cc2ccccc2)cn1 (stereo unspecified) | – | – | – |
| 0.93 µM | > 5 µM | > 5 µM | > 0.5 µM | – | – | – | – | – | – | NCc1ccc(Cl)cc1CNC(=O)CNC(=O)C(CCc1cccc[n+]1[O-])NS(=O)(=O)Cc1ccc(CC(=O)O)cc1 (stereo unspecified) | 0.29 µM | 1.2 µM | 0.49 µM |
| 40 µM | > 5 µM | > 5 µM | > 0.5 µM | 32 nM | – | – | – | – | – | NCc1ccccc1CNC(=O)CNC(=O)C(CCc1cccc[n+]1[O-])NS(=O)(=O)Cc1ccccc1 (stereo unspecified) | – | – | – |
| 190 µM | > 5 µM | > 5 µM | > 0.5 µM | 53 nM | – | – | – | – | – | O=C(CNC(=O)C(CCc1cccc[n+]1[O-])NS(=O)(=O)Cc1ccccc1)NCc1ccc(Cl)s1 (stereo unspecified) | – | – | – |
| 0.17 µM | 150 µM | 930 µM | 6.5 µM | – | – | < 20 min | 75% | 15% | < 5% | NCc1ccc(Cl)cc1CNC(=O)CNC(=O)[C@@H](CCc1cccc[n+]1[O-])NS(=O)(=O)Cc1ccccc1 | – | 0.5 µM | 0.16 µM |
| – | > 5 µM | > 5 µM | > 0.5 µM | – | – | – | – | – | – | NCc1ccc(Cl)cc1CNC(=O)[C@H](CO)NC(=O)[C@@H](CCc1cccc[n+]1[O-])NS(=O)(=O)Cc1ccccc1 | – | – | – |
| 2.7 µM | – | – | 0.0063 µM | 0.32 nM | – | – | – | – | – | N=C(N)c1ccc(CNC(=O)CNC(=O)[C@@H](CCc2cccc[n+]2[O-])NS(=O)(=O)Cc2ccccc2)cc1 | – | – | – |
| > 1000 µM | > 5 µM | > 5 µM | > 0.5 µM | 3900 nM | – | – | – | – | – | O=C(CNC(=O)[C@@H](CCc1cccc[n+]1[O-])NS(=O)(=O)Cc1ccccc1)NCCc1ccncc1 | – | – | – |
